According to US20170097335A1, “Methods for Diagnosing Impaired Absorption of Amino Acids, Monosaccharides and Fatty Acids” (The Texas A&M University System, priority 2015, published 2017):
Blank lines part the entries; values can stand above or below the compound they belong to.

Tests used:
[1] = Conversion of D- into L-phenylalanine; assay type: in vivo; settings: observed in the pig
Text: This allows for an estimation of the potential disturbance of the digestion and splanchnic extraction measurements that also involve L-phenylalanine stable isotopes.

[2] = Ratio of enterally to intravenously provided L-allo-isoleucine isotopologues in blood samples, pig model; assay type: in vivo
Experimental: (§1) Both human and animal models were used for measuring protein absorption in the intestinal walls. The subjects were prepared with indwelling catheters to enable blood sampling. Stable isotopes of amino acids are obtained and made into sterile and pyrogen-free solutions. These isotopes may comprise L-allo-[^2H10, ^15N]-isoleucine, L-allo-[^13C6]-isoleucine, D-1-[^13C]phenylalanine, D-C^3C6]phenylalanine, D-[^2H5]-phenylalanine, D-[2-^2H]phenylalanine. A blood sample is taken or drawn from each subject for a measurement of the natural background. A bolus or continuous infusion of the stable isotope of the amino acid may be used. The labeled amino acid is administered orally to each subject and another isotope of the amino acid nutrient is administered intravenously to the same subject at the same time or within 8 hours. Blood samples are taken or drawn from each subject in the time window of about one to several hours. The labeled amino acids enrichments in each sample are analyzed by Mass Spectrometry. Results from the Mass Spectrometry are applied to a non-compartmental model for analysis and ratio determination. The metabolic phenotype is produced based on the measured amino acids production, consumption and metabolism.

[3] = Protein absorption in the intestinal walls: ratio of orally to intravenously provided isotopologue in blood, healthy volunteers; assay type: in vivo, human; settings: FIG. 1
Experimental: as §1

- conversion rate of D- into L-phenylalanine [1]: 10%
SMILES: N[C@H](Cc1ccccc1)C(=O)O [D-phenylalanine]

- ratio of enterally administered over intravenously administered isotopologue ([2]; continuously fed pig (4 hours), over intravenously administered L-allo-[^2H10, ^15M-isoleucine, FIG. 4): about 0.8
- ratio of enterally administered over intravenously administered isotopologue ([2]; pigs with bolus feeding for 4 hours, over intravenously administered allo-Isoleucine[^2H10, ^15N](M9+M11), FIG. 5): about 0.8
SMILES: [13CH3][13CH2][13C@@H]([13CH3])[13C@H](N)[13C](=O)O [L-allo-[^13C6]-isoleucine]

- absorption ratio of orally provided isotopologue over intravenously provided isotopologue [3]: about 0.8
SMILES: CC[C@@H](C)[C@H](N)C(=O)O [L-allo-isoleucine]
